{"source": "ChEMBL document CHEMBL5512654", "about": "“Discovery of novel Thymol-TPP antibiotics that eradicate MRSA persisters” (Eur J Med Chem, 2024)", "key": {"Staphylococcus aureus [1]": {"test_system": "Staphylococcus aureus", "assay": "Antibacterial activity against Staphylococcus aureus ATCC 43300 assessed as inhibition of bacterial growth measured after 18 hrs by microplate reader", "assay_type": "functional", "conditions": "read-out: MIC100"}, "Staphylococcus aureus [2]": {"test_system": "Staphylococcus aureus", "assay": "Antibacterial activity against methicillin-resistant Staphylococcus aureus USA 300 assessed as inhibition of bacterial growth measured after 18 hrs by microplate reader", "assay_type": "functional", "conditions": "read-out: MIC100"}, "Staphylococcus aureus [3]": {"test_system": "Staphylococcus aureus", "assay": "Antibacterial activity against methicillin-resistant Staphylococcus aureus USA 3390 assessed as inhibition of bacterial growth measured after 18 hrs by microplate reader", "assay_type": "functional", "conditions": "read-out: MIC100"}, "Escherichia coli [4]": {"test_system": "Escherichia coli", "assay": "Antibacterial activity against Escherichia coli ATCC 25922 assessed as inhibition of bacterial growth measured after 18 hrs by microplate reader", "assay_type": "functional", "conditions": "read-out: MIC100"}, "Escherichia coli [5]": {"test_system": "Escherichia coli", "assay": "Antibacterial activity against Escherichia coli 53328 assessed as inhibition of bacterial growth measured after 18 hrs by microplate reader", "assay_type": "functional", "conditions": "read-out: MIC100"}, "Pseudomonas aeruginosa [6]": {"test_system": "Pseudomonas aeruginosa", "assay": "Antibacterial activity against Pseudomonas aeruginosa ATCC 27853 assessed as inhibition of bacterial growth measured after 18 hrs by microplate reader", "assay_type": "functional", "conditions": "read-out: MIC100"}, "Pseudomonas aeruginosa [7]": {"test_system": "Pseudomonas aeruginosa", "assay": "Antibacterial activity against Pseudomonas aeruginosa 535 assessed as inhibition of bacterial growth measured after 18 hrs by microplate reader", "assay_type": "functional", "conditions": "read-out: MIC100"}, "Klebsiella pneumoniae [8]": {"test_system": "Klebsiella pneumoniae", "assay": "Antibacterial activity against Klebsiella pneumonia ATCC 700603 assessed as inhibition of bacterial growth measured after 18 hrs by microplate reader", "assay_type": "functional", "conditions": "read-out: MIC100"}, "Klebsiella pneumoniae [9]": {"test_system": "Klebsiella pneumoniae", "assay": "Antibacterial activity against Klebsiella pneumonia 3026 assessed as inhibition of bacterial growth measured after 18 hrs by microplate reader", "assay_type": "functional", "conditions": "read-out: MIC100"}, "Acinetobacter baumannii [10]": {"test_system": "Acinetobacter baumannii", "assay": "Antibacterial activity against Acinetobacter baumannii ATCC 19606 assessed as inhibition of bacterial growth measured after 18 hrs by microplate reader", "assay_type": "functional", "conditions": "read-out: MIC100"}, "Acinetobacter baumannii [11]": {"test_system": "Acinetobacter baumannii", "assay": "Antibacterial activity against Acinetobacter baumannii ATCC 1318 assessed as inhibition of bacterial growth measured after 18 hrs by microplate reader", "assay_type": "functional", "conditions": "read-out: MIC100"}, "[12]": {"assay": "Cytotoxicity against human L02 cells incubated for 72 hrs by MTT dye reduction assay", "assay_type": "toxicity, cell-based"}, "Staphylococcus aureus [13]": {"test_system": "Staphylococcus aureus", "assay": "In vivo antibacterial efficacy in bioluminescent Staphylococcus aureus Xen29 infected in mouse topical infection model assessed as reduction in number of colonies at 8 mg/kg, sc treated 16, 24, 36, 48, […] hrs post-infection measured after 84 hrs relative to control", "assay_type": "functional"}}, "note": "Active and inactive are the calls of the source. No cut-off for these calls is given here."}
{"molecule": "Cc1cc(O)c(C(C)C)cc1-c1ccc(Cl)cc1", "values": [{"measurement": "MIC", "setting": "Staphylococcus aureus [1]", "result": 8, "unit": "µg/mL"}, {"measurement": "MIC", "setting": "Staphylococcus aureus [2]", "result": 4, "unit": "µg/mL"}, {"measurement": "MIC", "setting": "Staphylococcus aureus [3]", "result": 8, "unit": "µg/mL"}]}
{"molecule": "Cc1cc(OC(=O)CCCCCCCC[P+](c2ccccc2)(c2ccccc2)c2ccccc2)c(C(C)C)cc1-c1ccccc1.[Br-]", "values": [{"measurement": "MIC", "setting": "Escherichia coli [4]", "result": 4, "unit": "µg/mL"}, {"measurement": "MIC", "setting": "Escherichia coli [5]", "result": 16, "unit": "µg/mL"}, {"measurement": "MIC", "setting": "Pseudomonas aeruginosa [6]", "result": 64, "unit": "µg/mL"}, {"measurement": "MIC", "setting": "Pseudomonas aeruginosa [7]", "result": 32, "unit": "µg/mL"}, {"measurement": "MIC", "setting": "Klebsiella pneumoniae [8]", "result": 64, "unit": "µg/mL"}, {"measurement": "MIC", "setting": "Klebsiella pneumoniae [9]", "result": 64, "unit": "µg/mL"}, {"measurement": "MIC", "setting": "Acinetobacter baumannii [10]", "result": 16, "unit": "µg/mL"}, {"measurement": "MIC", "setting": "Acinetobacter baumannii [11]", "result": 8, "unit": "µg/mL"}, {"measurement": "IC50 at 72 h", "setting": "[12]", "result": 13.2, "unit": "µg/mL"}]}
{"molecule": "Cc1cc(O)c(C(C)C)cc1-c1cccc(O)c1", "values": [{"measurement": "MIC", "setting": "Staphylococcus aureus [1]", "result": 32, "unit": "µg/mL"}, {"measurement": "MIC", "setting": "Staphylococcus aureus [2]", "result": 32, "unit": "µg/mL"}, {"measurement": "MIC", "setting": "Staphylococcus aureus [3]", "result": 32, "unit": "µg/mL"}]}
{"molecule": "Cc1cc(OC(=O)CCC[P+](c2ccccc2)(c2ccccc2)c2ccccc2)c(C(C)C)cc1-c1ccccc1.[Br-]", "values": [{"measurement": "MIC", "setting": "Escherichia coli [4]", "result": 16, "unit": "µg/mL"}, {"measurement": "MIC", "setting": "Escherichia coli [5]", "result": 16, "unit": "µg/mL"}, {"measurement": "MIC", "setting": "Pseudomonas aeruginosa [6]", "result": 64, "unit": "µg/mL"}, {"measurement": "MIC", "setting": "Pseudomonas aeruginosa [7]", "result": "> 64", "unit": "µg/mL"}, {"measurement": "MIC", "setting": "Klebsiella pneumoniae [8]", "result": 16, "unit": "µg/mL"}, {"measurement": "MIC", "setting": "Klebsiella pneumoniae [9]", "result": 32, "unit": "µg/mL"}, {"measurement": "MIC", "setting": "Acinetobacter baumannii [10]", "result": 8, "unit": "µg/mL"}, {"measurement": "MIC", "setting": "Acinetobacter baumannii [11]", "result": 8, "unit": "µg/mL"}, {"measurement": "IC50 at 72 h", "setting": "[12]", "result": 5.04, "unit": "µg/mL"}]}
{"molecule": "Cc1cc(O)c(C(C)C)cc1-c1ccc(C(F)(F)F)cc1", "values": [{"measurement": "MIC", "setting": "Staphylococcus aureus [1]", "result": 4, "unit": "µg/mL"}, {"measurement": "MIC", "setting": "Staphylococcus aureus [2]", "result": 4, "unit": "µg/mL"}, {"measurement": "MIC", "setting": "Staphylococcus aureus [3]", "result": 8, "unit": "µg/mL"}]}
{"molecule": "Cc1cc(O)c(C(C)C)cc1-c1ccncc1", "values": [{"measurement": "MIC", "setting": "Staphylococcus aureus [1]", "result": 128, "unit": "µg/mL"}, {"measurement": "MIC", "setting": "Staphylococcus aureus [2]", "result": 128, "unit": "µg/mL"}, {"measurement": "MIC", "setting": "Staphylococcus aureus [3]", "result": 128, "unit": "µg/mL"}]}
{"molecule": "Cc1cc(O)c(C(C)C)cc1-c1cccc(C#N)c1", "values": [{"measurement": "MIC", "setting": "Staphylococcus aureus [1]", "result": 32, "unit": "µg/mL"}, {"measurement": "MIC", "setting": "Staphylococcus aureus [2]", "result": 16, "unit": "µg/mL"}, {"measurement": "MIC", "setting": "Staphylococcus aureus [3]", "result": 8, "unit": "µg/mL"}]}
{"molecule": "Cc1cc(O)c(C(C)C)cc1-c1cccc(F)c1", "values": [{"measurement": "MIC", "setting": "Staphylococcus aureus [1]", "result": 16, "unit": "µg/mL"}, {"measurement": "MIC", "setting": "Staphylococcus aureus [2]", "result": 16, "unit": "µg/mL"}, {"measurement": "MIC", "setting": "Staphylococcus aureus [3]", "result": 16, "unit": "µg/mL"}]}
{"molecule": "Cc1cc(OC(=O)CC[P+](c2ccccc2)(c2ccccc2)c2ccccc2)c(C(C)C)cc1-c1ccccc1.[Br-]", "values": [{"measurement": "MIC", "setting": "Escherichia coli [4]", "result": 4, "unit": "µg/mL"}, {"measurement": "MIC", "setting": "Escherichia coli [5]", "result": "> 64", "unit": "µg/mL"}, {"measurement": "MIC", "setting": "Pseudomonas aeruginosa [6]", "result": "> 64", "unit": "µg/mL"}, {"measurement": "MIC", "setting": "Pseudomonas aeruginosa [7]", "result": "> 64", "unit": "µg/mL"}, {"measurement": "MIC", "setting": "Klebsiella pneumoniae [8]", "result": 32, "unit": "µg/mL"}, {"measurement": "MIC", "setting": "Klebsiella pneumoniae [9]", "result": "> 64", "unit": "µg/mL"}, {"measurement": "MIC", "setting": "Acinetobacter baumannii [10]", "result": 32, "unit": "µg/mL"}, {"measurement": "MIC", "setting": "Acinetobacter baumannii [11]", "result": 16, "unit": "µg/mL"}, {"measurement": "IC50 at 72 h", "setting": "[12]", "result": 7.96, "unit": "µg/mL"}]}
{"molecule": "Cc1cc(O)c(C(C)C)cc1-c1ccccc1C(=O)O", "values": [{"measurement": "MIC", "setting": "Staphylococcus aureus [1]", "result": 16, "unit": "µg/mL"}, {"measurement": "MIC", "setting": "Staphylococcus aureus [2]", "result": 8, "unit": "µg/mL"}, {"measurement": "MIC", "setting": "Staphylococcus aureus [3]", "result": 8, "unit": "µg/mL"}]}
{"molecule": "COc1ccccc1-c1cc(C(C)C)c(O)cc1C", "values": [{"measurement": "MIC", "setting": "Staphylococcus aureus [1]", "result": "> 64", "unit": "µg/mL"}, {"measurement": "MIC", "setting": "Staphylococcus aureus [2]", "result": "> 64", "unit": "µg/mL"}, {"measurement": "MIC", "setting": "Staphylococcus aureus [3]", "result": "> 64", "unit": "µg/mL"}]}
{"molecule": "CN[C@H](CC(C)C)C(=O)N[C@H]1C(=O)N[C@@H](CC(N)=O)C(=O)N[C@H]2C(=O)N[C@H]3C(=O)N[C@H](C(=O)N[C@H](C(=O)O)c4cc(O)cc(O)c4-c4cc3ccc4O)[C@H](O)c3ccc(c(Cl)c3)Oc3cc2cc(c3O[C@@H]2O[C@H](CO)[C@@H](O)[C@H](O)[C@H]2O[C@H]2C[C@](C)(N)[C@H](O)[C@H](C)O2)Oc2ccc(cc2Cl)[C@H]1O", "values": [{"measurement": "AC200", "setting": "Staphylococcus aureus [13]", "result": "Active"}]}
{"molecule": "Cc1cc(O)c(C(C)C)cc1-c1ccccc1Cl", "values": [{"measurement": "MIC", "setting": "Staphylococcus aureus [1]", "result": 8, "unit": "µg/mL"}, {"measurement": "MIC", "setting": "Staphylococcus aureus [2]", "result": 8, "unit": "µg/mL"}, {"measurement": "MIC", "setting": "Staphylococcus aureus [3]", "result": 8, "unit": "µg/mL"}]}
{"molecule": "Cc1cc(O)c(C(C)C)cc1-c1ccc(C(=O)O)cc1", "values": [{"measurement": "MIC", "setting": "Staphylococcus aureus [1]", "result": 16, "unit": "µg/mL"}, {"measurement": "MIC", "setting": "Staphylococcus aureus [2]", "result": 16, "unit": "µg/mL"}, {"measurement": "MIC", "setting": "Staphylococcus aureus [3]", "result": 8, "unit": "µg/mL"}]}
{"molecule": "Cc1cc(O)c(C(C)C)cc1-c1ccc(C#N)cc1", "values": [{"measurement": "MIC", "setting": "Staphylococcus aureus [1]", "result": 16, "unit": "µg/mL"}, {"measurement": "MIC", "setting": "Staphylococcus aureus [2]", "result": 16, "unit": "µg/mL"}, {"measurement": "MIC", "setting": "Staphylococcus aureus [3]", "result": 32, "unit": "µg/mL"}]}
{"molecule": "Cc1cc(O)c(C(C)C)cc1-c1cccc(C(F)(F)F)c1", "values": [{"measurement": "MIC", "setting": "Staphylococcus aureus [1]", "result": 8, "unit": "µg/mL"}, {"measurement": "MIC", "setting": "Staphylococcus aureus [2]", "result": 4, "unit": "µg/mL"}, {"measurement": "MIC", "setting": "Staphylococcus aureus [3]", "result": 8, "unit": "µg/mL"}]}
{"molecule": "COc1ccc(-c2cc(C(C)C)c(O)cc2C)cc1", "values": [{"measurement": "MIC", "setting": "Staphylococcus aureus [1]", "result": 16, "unit": "µg/mL"}, {"measurement": "MIC", "setting": "Staphylococcus aureus [2]", "result": 32, "unit": "µg/mL"}, {"measurement": "MIC", "setting": "Staphylococcus aureus [3]", "result": 16, "unit": "µg/mL"}]}
{"molecule": "Cc1cc(O)c(C(C)C)cc1-c1cccc(C(=O)O)c1", "values": [{"measurement": "MIC", "setting": "Staphylococcus aureus [1]", "result": 8, "unit": "µg/mL"}, {"measurement": "MIC", "setting": "Staphylococcus aureus [2]", "result": 8, "unit": "µg/mL"}, {"measurement": "MIC", "setting": "Staphylococcus aureus [3]", "result": 16, "unit": "µg/mL"}]}
{"molecule": "Cc1cc(O)c(C(C)C)cc1-c1ccccc1C#N", "values": [{"measurement": "MIC", "setting": "Staphylococcus aureus [1]", "result": 16, "unit": "µg/mL"}, {"measurement": "MIC", "setting": "Staphylococcus aureus [2]", "result": 8, "unit": "µg/mL"}, {"measurement": "MIC", "setting": "Staphylococcus aureus [3]", "result": 8, "unit": "µg/mL"}]}
